The values below are quoted from earlier work in US20170027973A1, “MODULARION OF INVARIANT NATURAL KILLER T CELLS IN THE TREATMENT OF SEPSIS” (LONDON HEALTH SCIENCES CENTRE RESEARCH INC., priority 2014, published 2017).

This data set relates to surface TCR of iNKT cells. The note with it: after 24 hours; cited from earlier work.

Turning to `CCCCCCCCCCCCCCCCCCCCCCCCCC(=O)N[C@@H](CO[C@H]1O[C@H](CO)[C@H](O)[C@H](O)[C@H]1O)[C@H](O)[C@H](O)CCCCCCCCCCCCCC` [KRN7000, reference compound], the “potency at down-regulating the TCR relative to OCH” value is “approximately 10 fold”.
